# Data published in US20230146455A1, “TREATMENT OF INFLAMMATORY DISEASES WITH PEPTIDES AND PHARMACEUTICAL COMPOSITIONS” (Yuyu Pharma, Inc., priority 2020, published 2023).
# Where “and” joins values, the source holds several entries; their conditions need not be identical. Equal entries are not always repeated. Where a SMILES comes first, the peptide text is derived from it. [ ]: non-standard residue; d: D form. Hyp = O=C(O)[C@@H]1C[C@@H](O)CN1
# System: IL-1 beta/IL-1F2
# Assay: Example 8 main study Luminex, LPS hPBMCs: IL-1 beta/IL-1F2
# Assay type: cell-based, human
# Description: Human PBMCs were pretreated with YY-101, YDE-011, YDE-043 or reference compound; Xiidra® at various concentration (ranging from […] to 500 nM) for 2 h before stimulation. An equal volume of 0.5% DMSO was used as a vehicle control. Then, the cells were treated with LPS at 5 ug/ml, which was selected based on the pilot study. The supernatants from treated cells were harvested at 24 h and placed in a 96 well for Luminex cytokine & chemokine profiling using a Luminex 200 multiplex assay (Luminex; R&D system, USA).
# The main study arm with triplicate wells per group in a 24-well plate: • 1. Blank • 2. PBMC: 0.5% DMSO • 3. PBMC+LPS (5 ug/ml) • 4. PBMC+YY-101 500 nM • 5. PBMC+YY-101 50 nM • 6. PBMC+YY-101 5 nM • 7. PBMC+YY-101 0.5 nM • 8. PBMC+LPS (5 ug/ml)+Xiidra® 500 nM • 9. PBMC+LPS (5 ug/ml)+Xiidra® 50 nM • 10. PBMC+LPS (5 ug/ml)+Xiidra® 5 nM • 11. PBMC+LPS (5 ug/ml)+Xiidra® 0.5 nM • 12. PBMC+LPS (5 ug/ml)+Xiidra® 0.05 nM • 13. PBMC+LPS (5 ug/ml)+Xiidra® 0.005 nM • 14. PBMC+LPS (5 ug/ml)+YY-101 500 nM • 15. PBMC+LPS (5 ug/ml)+YY-101 50 nM • 16. PBMC+LPS (5 ug/ml)+YY-101 5 nM • 17. PBMC+LPS (5 ug/ml)+YY-101 0.5 nM • 18. PBMC+LPS (5 ug/ml)+YY-101 0.05 nM • 19. PBMC+LPS (5 ug/ml)+YY-101 0.005 nM • 20. PBMC+LPS (5 ug/ml)+YDE-011 500 nM • 21. PBMC+LPS (5 ug/ml)+YDE-011 50 nM • 22. PBMC+LPS (5 ug/ml)+YDE-011 5 nM • 23. PBMC+LPS (5 ug/ml)+YDE-011 0.5 nM • 24. PBMC+LPS (5 ug/ml)+YDE-011 0.05 nM • 25. PBMC+LPS (5 ug/ml)+YDE-011 0.005 nM • 26. PBMC+LPS (5 ug/ml)+YDE-043 500 nM • 27. PBMC+LPS (5 ug/ml)+YDE-043 50 nM • 28. PBMC+LPS (5 ug/ml)+YDE-043 5 nM • 29. PBMC+LPS (5 ug/ml)+YDE-043 0.5 nM • 30. PBMC+LPS (5 ug/ml)+YDE-043 0.05 nM • 31. PBMC+LPS (5 ug/ml)+YDE-043 0.005 nM
# Multiplex assay was used to measure 30 cytokines and chemokines. The 1:200 diluted cell supernatant and serial dilution of the standard were dispensed into a 96 well plate at 50 ul/well. Then, the pre-mixed cocktail of antibody-coated magnetic beads was dispensed at 50 ul/well and incubated at room temperature for 2 h in a horizontal orbital microplate shaker at 800±500 rpm. The beads were washed using a magnetic device to prevent loss. The biotin-antibody was dispensed in 50 ul of each well and incubated at room temperature for 1 h in a shaker at 800±500 rpm. After washing, streptavidin-PE was added at 50 ul/well and incubated at room temperature for 30 min in a shaker under the same conditions. Finally, after washing, wash buffer (100 ul/well) was added to the plate and incubated in a shaker for 2 min. The Luminex™ 200 setting were set according to the manufacturer's protocol. The data was calculated with a standard five-parameter logistic nonlinear regression analysis of the data (xPonent software 4.2, USA). Results were presented as concentration (ng/ml or pg/ml).
# [1] = PBMC + LPS(5 ug/ml) + test article 0.005 nM, Mean
# [2] = PBMC + LPS(5 ug/ml) + test article 0.005 nM, individual replicates
# [3] = PBMC + LPS(5 ug/ml) + test article 0.05 nM, Mean
# [4] = PBMC + LPS(5 ug/ml) + test article 0.05 nM, individual replicates
# [5] = PBMC + LPS(5 ug/ml) + test article 0.5 nM, Mean
# [6] = PBMC + LPS(5 ug/ml) + test article 0.5 nM, individual replicates
# [7] = PBMC + LPS(5 ug/ml) + test article 5 nM, Mean
# [8] = PBMC + LPS(5 ug/ml) + test article 5 nM, individual replicates
# [9] = PBMC + LPS(5 ug/ml) + test article 50 nM, Mean
# [10] = PBMC + LPS(5 ug/ml) + test article 50 nM, individual replicates
# [11] = PBMC + LPS(5 ug/ml) + test article 500 nM, Mean
# [12] = PBMC + LPS(5 ug/ml) + test article 500 nM, individual replicates
# [13] = PBMC + test article 0.5 nM, no LPS, Mean
# [14] = PBMC + test article 0.5 nM, no LPS, individual replicates (1st, 2nd)
# [15] = PBMC + test article 5 nM, no LPS, Mean
# [16] = PBMC + test article 5 nM, no LPS, individual replicates (1st, 2nd)
# [17] = PBMC + test article 0.05 uM, no LPS, Mean
# [18] = PBMC + test article 0.05 uM, no LPS, individual replicates (1st, 2nd)
# [19] = PBMC + test article 50 nM, no LPS, Mean
# [20] = PBMC + test article 50 nM, no LPS, individual replicates (1st, 2nd)
# [21] = PBMC + test article 500 nM, no LPS, Mean
# [22] = PBMC + test article 500 nM, no LPS, individual replicates (1st, 2nd)
compound,measurement,setting,value
CC(C)C[C@H](NC(=O)CNC(=O)[C@H](CC(=O)O)NC(=O)[C@H](CCC(N)=O)NC(=O)CNC(=O)[C@@H]1C[C@@H](O)CN1)C(=O)N[C@@H](C)C(=O)NCC(=O)N1CCC[C@H]1C(=O)N[C@@H](CCCCN)C(=O)O [YY-101] (H-[Hyp]GQDGLAGPK-OH; N-terminus and C-terminus assumed),IL-1 beta/IL-1F2 Concentration,[1],5806.3 pg/mL
same,IL-1 beta/IL-1F2 MFI,[1],105.2
same,IL-1 beta/IL-1F2 Concentration,[2],5975.0 pg/mL and 6004.7 pg/mL and 5439.3 pg/mL
same,IL-1 beta/IL-1F2 MFI,[2],108.0 and 108.5 and 99.0
same,IL-1 beta/IL-1F2 Concentration,[3],6004.8 pg/mL
same,IL-1 beta/IL-1F2 MFI,[3],108.5
same,IL-1 beta/IL-1F2 Concentration,[4],5736.8 pg/mL and 6511.1 pg/mL and 5766.6 pg/mL
same,IL-1 beta/IL-1F2 MFI,[4],104.0 and 117.0 and 104.5
same,IL-1 beta/IL-1F2 Concentration,[5],6044.5 pg/mL
same,IL-1 beta/IL-1F2 MFI,[5],109.2
same,IL-1 beta/IL-1F2 Concentration,[6],5736.8 pg/mL and 5975.0 pg/mL and 6421.7 pg/mL
same,IL-1 beta/IL-1F2 MFI,[6],104.0 and 108.0 and 115.5
same,IL-1 beta/IL-1F2 Concentration,[7],5875.9 pg/mL
same,IL-1 beta/IL-1F2 MFI,[7],106.3
same,IL-1 beta/IL-1F2 Concentration,[8],5498.8 pg/mL and 5558.3 pg/mL and 6570.7 pg/mL
same,IL-1 beta/IL-1F2 MFI,[8],100.0 and 101.0 and 118.0
same,IL-1 beta/IL-1F2 Concentration,[9],5608.2 pg/mL
same,IL-1 beta/IL-1F2 MFI,[9],101.8
same,IL-1 beta/IL-1F2 Concentration,[10],5201.4 pg/ml (2×) and 6421.7 pg/ml
same,IL-1 beta/IL-1F2 MFI,[10],95.0 (2×) and 115.5
same,IL-1 beta/IL-1F2 Concentration,[11],5578.2 pg/mL
same,IL-1 beta/IL-1F2 MFI,[11],101.3
same,IL-1 beta/IL-1F2 Concentration,[12],5260.9 pg/mL and 5915.4 pg/mL and 5558.3 pg/mL
same,IL-1 beta/IL-1F2 MFI,[12],96.0 and 107.0 and 101.0
same,IL-1 beta/IL-1F2 Concentration,[13],391.1 pg/mL
same,IL-1 beta/IL-1F2 MFI,[13],13.5
same,IL-1 beta/IL-1F2 Concentration,[14],362.0 pg/mL and 420.1 pg/mL
same,IL-1 beta/IL-1F2 MFI,[14],13.0 and 14.0
same,IL-1 beta/IL-1F2 Concentration,[15],391.1 pg/mL
same,IL-1 beta/IL-1F2 MFI,[15],13.5
same,IL-1 beta/IL-1F2 Concentration,[16],362.0 pg/mL and 420.1 pg/mL
same,IL-1 beta/IL-1F2 MFI,[16],13.0 and 14.0
same,IL-1 beta/IL-1F2 Concentration,[17],420.1 pg/mL
same,IL-1 beta/IL-1F2 MFI,[17],14.0
same,IL-1 beta/IL-1F2 Concentration,[18],420.1 pg/mL
same,IL-1 beta/IL-1F2 MFI,[18],14.0
same,IL-1 beta/IL-1F2 Concentration,[19],362.0 pg/mL
same,IL-1 beta/IL-1F2 MFI,[19],13.0
same,IL-1 beta/IL-1F2 Concentration,[20],362.0 pg/mL
same,IL-1 beta/IL-1F2 MFI,[20],13.0
same,IL-1 beta/IL-1F2 Concentration,[21],420.1 pg/mL
same,IL-1 beta/IL-1F2 MFI,[21],14.0
same,IL-1 beta/IL-1F2 Concentration,[22],420.1 pg/mL
same,IL-1 beta/IL-1F2 MFI,[22],14.0
